In one data set the target is T1, Drg1fl–Lerepo4_220–396 (Homo sapiens, UniProt Q9Y295).
T1 construct: gene DRG1; recombinant full-length Drg1 with C-terminal Lerepo4 fragment; with Zinc finger CCCH domain-containing protein 15
T1 sequence (Q9Y295 2-367): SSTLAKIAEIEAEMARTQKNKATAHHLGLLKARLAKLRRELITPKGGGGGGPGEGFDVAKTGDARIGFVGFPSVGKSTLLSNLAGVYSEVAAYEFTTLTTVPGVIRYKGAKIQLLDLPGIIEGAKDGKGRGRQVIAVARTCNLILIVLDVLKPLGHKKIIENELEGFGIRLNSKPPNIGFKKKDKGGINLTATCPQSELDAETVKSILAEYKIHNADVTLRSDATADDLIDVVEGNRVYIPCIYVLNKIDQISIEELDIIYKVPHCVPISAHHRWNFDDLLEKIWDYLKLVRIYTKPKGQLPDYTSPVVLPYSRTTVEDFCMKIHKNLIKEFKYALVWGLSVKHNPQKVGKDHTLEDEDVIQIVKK
T1 sequence (Q8WU90 220-396 partner): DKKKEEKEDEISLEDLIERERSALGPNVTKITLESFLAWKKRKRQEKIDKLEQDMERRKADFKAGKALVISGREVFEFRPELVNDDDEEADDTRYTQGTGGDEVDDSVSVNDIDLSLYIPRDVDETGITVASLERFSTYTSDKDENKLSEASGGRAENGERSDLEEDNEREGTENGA
As to the kind of experiment: malachite green phosphate release. In kind it is biochemical. The settings on record: 100 mM KCl, 50 mM Tris pH 7.5, 5 mM MgCl2, 37°C, 1 h, 20 μM protein. An excerpt:
malachite green phosphate release on Drg1fl–Lerepo4_220–396

Data set [1] deals with T2, Rbg1fl–Tma46_205–345 (Saccharomyces cerevisiae, UniProt P39729).
T2 construct: gene RBG1; 6His-tagged full-length Rbg1 (N-terminal tag) co-expressed in E. coli with Tma46 residues 205-345; heterodimer; with Translation machinery-associated protein 46
T2 sequence (P39729 1-369): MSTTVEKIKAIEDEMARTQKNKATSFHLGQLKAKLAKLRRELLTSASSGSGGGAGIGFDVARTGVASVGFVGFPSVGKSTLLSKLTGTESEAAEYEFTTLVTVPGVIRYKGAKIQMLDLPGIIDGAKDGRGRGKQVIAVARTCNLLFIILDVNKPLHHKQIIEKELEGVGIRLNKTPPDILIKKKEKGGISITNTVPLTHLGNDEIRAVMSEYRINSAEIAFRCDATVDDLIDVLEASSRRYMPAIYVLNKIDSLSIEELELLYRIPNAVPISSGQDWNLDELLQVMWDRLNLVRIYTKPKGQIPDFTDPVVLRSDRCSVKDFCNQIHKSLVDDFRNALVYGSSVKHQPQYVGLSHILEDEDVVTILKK
T2 sequence (Q12000 205-345 I241A partner): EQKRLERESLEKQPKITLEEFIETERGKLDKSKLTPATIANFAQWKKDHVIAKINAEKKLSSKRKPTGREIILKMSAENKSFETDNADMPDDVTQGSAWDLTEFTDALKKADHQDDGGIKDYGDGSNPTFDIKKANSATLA
The data set can be described thus: malachite green phosphate release. In kind it is biochemical. The settings on record: 100 mM KCl, 50 mM Tris pH 7.5, 5 mM MgCl2, 37°C, 1 h, 20 μM protein. An excerpt: (§1) malachite green phosphate release on Rbg1fl–Tma46_205–345

Data set [2] has as its target T3, Rbg1fl–Tma46_205–345 (Saccharomyces cerevisiae, UniProt P39729).
T3 construct: gene RBG1; 6His-tagged full-length Rbg1 (N-terminal tag) co-expressed in E. coli with Tma46 residues 205-345; heterodimer; with Translation machinery-associated protein 46
T3 sequence (P39729 1-369): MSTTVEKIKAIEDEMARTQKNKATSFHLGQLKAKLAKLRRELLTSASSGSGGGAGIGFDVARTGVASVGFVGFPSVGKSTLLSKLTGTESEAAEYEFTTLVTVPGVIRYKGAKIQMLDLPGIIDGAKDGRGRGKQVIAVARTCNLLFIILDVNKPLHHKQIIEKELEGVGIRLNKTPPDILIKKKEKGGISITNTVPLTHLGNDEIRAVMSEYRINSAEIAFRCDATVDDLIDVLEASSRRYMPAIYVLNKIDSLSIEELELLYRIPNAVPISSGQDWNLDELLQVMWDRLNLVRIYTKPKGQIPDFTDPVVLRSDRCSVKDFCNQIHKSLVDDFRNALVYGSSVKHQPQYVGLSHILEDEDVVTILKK
T3 sequence (Q12000 205-345 I241A/F246A partner): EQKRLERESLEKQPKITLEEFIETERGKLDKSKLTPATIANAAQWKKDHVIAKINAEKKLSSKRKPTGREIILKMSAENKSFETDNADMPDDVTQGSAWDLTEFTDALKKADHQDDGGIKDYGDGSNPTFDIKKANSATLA
As to the kind of experiment: malachite green phosphate release. In kind it is biochemical. The settings on record: 100 mM KCl, 50 mM Tris pH 7.5, 5 mM MgCl2, 37°C, 1 h, 20 μM protein.
From the text: as §1
This is another data set of the same source.

Data set [3] has as its target T4, Rbg1fl–Tma46_205–345 (Saccharomyces cerevisiae, UniProt P39729).
T4 construct: gene RBG1; 6His-tagged full-length Rbg1 (N-terminal tag) co-expressed in E. coli with Tma46 residues 205-345; heterodimer; with Translation machinery-associated protein 46
T4 sequence (P39729 1-369): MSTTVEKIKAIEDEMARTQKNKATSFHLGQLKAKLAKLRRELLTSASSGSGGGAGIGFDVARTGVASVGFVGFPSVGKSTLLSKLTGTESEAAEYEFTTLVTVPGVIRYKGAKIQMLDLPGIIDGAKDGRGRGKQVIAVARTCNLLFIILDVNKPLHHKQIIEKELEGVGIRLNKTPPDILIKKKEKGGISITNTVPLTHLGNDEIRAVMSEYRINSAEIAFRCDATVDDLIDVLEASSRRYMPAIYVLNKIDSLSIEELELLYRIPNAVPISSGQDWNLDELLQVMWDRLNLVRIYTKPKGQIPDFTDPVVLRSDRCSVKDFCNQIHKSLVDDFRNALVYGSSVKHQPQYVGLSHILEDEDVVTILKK
T4 sequence (Q12000 205-345 W249A/K250E partner): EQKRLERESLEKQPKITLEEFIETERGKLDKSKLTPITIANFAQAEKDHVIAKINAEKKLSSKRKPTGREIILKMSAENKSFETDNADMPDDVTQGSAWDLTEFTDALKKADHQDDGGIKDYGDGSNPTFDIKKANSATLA
As to the kind of experiment: malachite green phosphate release. The settings on record: 100 mM KCl, 50 mM Tris pH 7.5, 5 mM MgCl2, 37°C, 1 h, 20 μM protein. In kind it is biochemical.
From the text: as §1
This is another data set of the same source.

Data set [4] addresses T5, Rbg1fl–Tma46_205–345 (Saccharomyces cerevisiae, UniProt P39729).
T5 construct: gene RBG1; 6His-tagged full-length Rbg1 (N-terminal tag) co-expressed in E. coli with Tma46 residues 205-345; heterodimer; with Translation machinery-associated protein 46
T5 sequence (P39729 1-369): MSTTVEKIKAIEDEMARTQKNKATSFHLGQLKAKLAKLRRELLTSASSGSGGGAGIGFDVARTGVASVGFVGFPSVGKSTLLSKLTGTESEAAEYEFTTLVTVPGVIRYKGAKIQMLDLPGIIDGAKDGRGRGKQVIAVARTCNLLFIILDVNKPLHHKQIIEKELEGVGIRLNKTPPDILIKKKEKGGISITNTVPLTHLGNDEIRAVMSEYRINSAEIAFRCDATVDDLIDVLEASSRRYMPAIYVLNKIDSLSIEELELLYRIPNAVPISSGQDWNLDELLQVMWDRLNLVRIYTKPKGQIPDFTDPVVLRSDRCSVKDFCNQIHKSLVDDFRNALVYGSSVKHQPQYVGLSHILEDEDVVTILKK
T5 sequence (Q12000 205-345 partner): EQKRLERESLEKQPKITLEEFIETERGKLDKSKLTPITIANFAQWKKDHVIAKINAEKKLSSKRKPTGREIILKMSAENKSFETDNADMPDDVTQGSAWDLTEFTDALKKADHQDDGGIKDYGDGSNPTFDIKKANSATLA
The data set can be described thus: thermal shift assay (Sypro Orange). In kind it is binding. The settings on record: 150 mM NaCl, 20 mM Tris pH 7.5, 2 mM DTT, ~0.05 mM protein.

In data set [5] the target is human Drg1 full length (human) (UniProt Q9Y295).
Substrate in data set [6]: Nc1nc2c(ncn2[C@@H]2O[C@H](COP(=O)(O)OP(=O)(O)OP(=O)(O)O)[C@@H](O)[C@H]2O)c(=O)[nH]1
As to the kind of experiment: malachite green phosphate release. In kind it is biochemical, Saccharomyces cerevisiae. As to conditions: 100 mM KCl, 50 mM Tris pH 7.5, 5 mM MgCl2, 37°C, 1 h, 20 μM protein.

Five molecules from paper PMC3510508, “Rbg1–Tma46 dimer structure reveals new functional domains and their role in polysome recruitment” (Nucleic Acids Research, 2012) can be followed below.

With `Nc1nc2c(ncn2[C@@H]2O[C@H](COP(=O)(O)OP(=O)(O)OP(=O)(O)O)[C@@H](O)[C@H]2O)c(=O)[nH]1` [GTP], the Km at Drg1fl–Lerepo4_220–396 came out at 319 ± 35 µM; on Rbg1fl–Tma46_205–345 [1], 186 ± 34.5 µM; on Rbg1fl–Tma46_205–345 [2] it was 429 ± 94.7 µM; on Rbg1fl–Tma46_205–345 [3] it was 426 ± 52.6 µM. The “increase in melting temperature” value on Rbg1fl–Tma46_205–345 [4] (0.2 mM GTP) is “increased melting temperature in the presence of the GDP, GTP or non-hydrolysable GTPγS”.
For the molecule `Nc1nc2c(ncn2[C@@H]2O[C@H](COP(=O)(O)OP(=O)(O)OP(O)(O)=S)[C@@H](O)[C@H]2O)c(=O)[nH]1` [GTPγS], the “increase in melting temperature” value at Rbg1fl–Tma46_205–345 [4] (0.5 mM GTPγS in methods (0.2 mM also stated in Figure 4 legend)) is listed as “increased melting temperature in the presence of the GDP, GTP or non-hydrolysable GTPγS”.
`Nc1nc2c(ncn2[C@@H]2O[C@H](COP(=O)(O)OP(=O)(O)O)[C@@H](O)[C@H]2O)c(=O)[nH]1` [GDP]: on Rbg1fl–Tma46_205–345 [4] (0.2 mM GDP), the “increase in melting temperature” value was “increased melting temperature in the presence of the GDP, GTP or non-hydrolysable GTPγS”.
In data set [5], “Lerepo4_(220–396) (from UniProt Q8WU90 220-396) (domain or fragment)” displayed a GTP hydrolysis (Malachite green), Vmax of the complex; free Drg1 showed significantly reduced activity (nmol min^−1 mg^−1) of 0.115 and a GTP hydrolysis (Malachite green), kcat of the complex of 0.0074 min⁻¹.

B1: Rbg1Δ175–243+Gly–Tma46_205–345 (ΔS5D2L) (Saccharomyces cerevisiae S288C; DEL175-243/INS174G) (protein)
chain: MSTTVEKIKAIEDEMARTQKNKATSFHLGQLKAKLAKLRRELLTSASSGSGGGAGIGFDVARTGVASVGFVGFPSVGKSTLLSKLTGTESEAAEYEFTTLVTVPGVIRYKGAKIQMLDLPGIIDGAKDGRGRGKQVIAVARTCNLLFIILDVNKPLHHKQIIEKELEGVGIRLNGPAIYVLNKIDSLSIEELELLYRIPNAVPISSGQDWNLDELLQVMWDRLNLVRIYTKPKGQIPDFTDPVVLRSDRCSVKDFCNQIHKSLVDDFRNALVYGSSVKHQPQYVGLSHILEDEDVVTILKK
notes: 6His-tagged Rbg1 with S5D2L domain (175-243) replaced by one Gly, co-expressed in E. coli with Tma46 205-345; with Translation machinery-associated protein 46
With B1, in data set [6], the Km was determined as 221.5 ± 159.2 µM, the Vmax amounted to 1.57e-05 µmol/min/mg and the kcat was determined as 1e-05 s⁻¹.

The term Km denotes the substrate concentration at which the rate is half of its maximum. The Vmax is the top rate of the reaction or transport when substrate is in excess. The term kcat denotes the maximal rate divided by the concentration of active sites.
